Consider 4 compounds from US7550603B2, “1H-benzimidazole-4-carboxamides substituted with a quaternary carbon at the 2-position are potent PARP inhibitors” (Abbott Laboratories Inc., priority 2005, dated 2009).

Test [1] relates to peritoneum following zymosan challenge. The note with it: peritoneal lavage four hours post zymosan (2 mg/animal).
Procedure: Compounds were administered orally before an intraperitoneal zymosan injection (2 mg/animal).
The next test concerns Female BALB/c mice. Kind of test: Deaths following lipopolysaccharide (LPS) challenge. It is filed as in vivo. The note with it: 20 mg/kg LPS intravenous, monitored 72 hours.
For test [2], the target named is Recombinant Human Poly(ADP-Ribose) Polymerase (PARP) (Homo sapiens, UniProt P09874). Briefly: Inhibition of PARP (PARP1 assay, [3H]-NAD+ / biotinylated histone H1, FlashPlate). The note with it: read-out: PARP Inhibition Ki; Table 1; quaternary and non-quaternary compounds.
Procedure: Nicotinamide[2,5′,8-3H]adenine dinucleotide and strepavidin SPA beads were purchased from Amersham Biosiences (UK) Recombinant Human Poly(ADP-Ribose) Polymerase (PARP) purified from E. coli and 6-Biotin-17-NAD^+, were purchase from Trevigen, Gaithersburg, Md. NAD^+, Histone, aminobenzamide, 3-amino benzamide and Calf Thymus DNA (dcDNA) were purchased from Sigma, St. Louis, Mo. Stem loop oligonucleotide containing MCAT sequence was obtained from Qiagen. The oligos were dissolved to 1 mM in annealing buffer containing 10 mM Tris HCl pH 7.5, 1 mM EDTA, and 50 mM NaCl, incubated for 5 min at 95° C., and followed by annealing at 45° C. for 45 minutes. […] Biotinylated histone H1 was prepared by treating the protein with Sulfo-NHS-LC-Biotin from Pierce Rockford, Ill. The biotinylation reaction was conducted by slowly and intermittently adding 3 equivalents of 10 mM Sulfo-NHS-LC-Biotin to 100 μM Histone H1 in phosphate-buffered saline, pH 7.5, at 4° C. with gentle vortexing over 1 min followed by subsequent 4° C. incubation for 1 hr. Streptavidin coated (FlashPlate Plus) microplates were purchased from Perkin Elmer, Boston, Mass.
PARP1 assay was conducted in PARP assay buffer containing 50 mM Tris pH 8.0, 1 mM DTT, 4 mM MgCl2. […] Auto reactions utilizing SPA bead-based detection were carried out in 100 μl volumes in white 96 well plates.
The mark [3] stands for this setting: 30 mg/kg/day orally twice a day.
Where [4] appears, read: 100 mg/kg/day orally twice a day.

pKi: −log10 of the molar value. Where two headings read alike, the source gives them in different places. Marks after values point to notes of the source that are not given here.

Recombinant Human Poly(ADP-Ribose) Polymerase (PARP), sequence (P09874 whole entry): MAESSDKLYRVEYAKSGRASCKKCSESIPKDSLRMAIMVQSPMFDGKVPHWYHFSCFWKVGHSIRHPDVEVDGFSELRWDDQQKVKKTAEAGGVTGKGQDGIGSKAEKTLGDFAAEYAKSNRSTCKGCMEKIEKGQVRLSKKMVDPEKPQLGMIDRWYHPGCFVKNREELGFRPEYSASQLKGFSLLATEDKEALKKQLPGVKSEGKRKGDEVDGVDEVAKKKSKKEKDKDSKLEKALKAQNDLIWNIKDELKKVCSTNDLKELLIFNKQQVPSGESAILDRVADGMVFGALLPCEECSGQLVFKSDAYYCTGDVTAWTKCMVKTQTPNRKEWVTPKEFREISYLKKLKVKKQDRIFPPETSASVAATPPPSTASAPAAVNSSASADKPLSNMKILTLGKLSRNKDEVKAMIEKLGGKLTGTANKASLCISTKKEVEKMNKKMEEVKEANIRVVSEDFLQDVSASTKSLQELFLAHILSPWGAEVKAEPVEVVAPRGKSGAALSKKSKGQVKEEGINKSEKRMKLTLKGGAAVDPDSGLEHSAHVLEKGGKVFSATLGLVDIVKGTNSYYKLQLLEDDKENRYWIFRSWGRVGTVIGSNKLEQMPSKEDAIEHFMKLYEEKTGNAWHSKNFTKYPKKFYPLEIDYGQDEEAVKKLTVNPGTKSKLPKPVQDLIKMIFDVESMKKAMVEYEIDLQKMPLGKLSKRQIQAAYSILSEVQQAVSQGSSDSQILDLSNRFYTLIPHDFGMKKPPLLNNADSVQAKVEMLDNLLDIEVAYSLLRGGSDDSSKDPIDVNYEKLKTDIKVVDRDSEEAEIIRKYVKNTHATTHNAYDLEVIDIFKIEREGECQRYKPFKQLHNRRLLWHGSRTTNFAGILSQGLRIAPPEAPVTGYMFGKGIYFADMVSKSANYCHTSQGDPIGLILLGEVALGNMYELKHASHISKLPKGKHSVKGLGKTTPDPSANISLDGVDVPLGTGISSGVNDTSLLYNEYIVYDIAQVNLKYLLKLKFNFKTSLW
Procedure for Female BALB/c mice: Female BALB/c mice were dosed orally, twice a day with vehicle (0.2% HPMC), or drug at 30 mg/kg/day or 100 mg/kg/day. The mice were injected intravenous with 20 mg/kg LPS at 30 minutes after the first treatment dose. They were monitored for survival for 72 hours or until 80-90% lethality was observed.

In the case of `CCCN1CCC(c2nc3c(C(N)=O)cccc3[nH]2)CC1` [2-(1-propylpiperidin-4-yl)-1H-benzimidazole-4-carboxamide], the “Percent decrease in Cell Influx relative to control” value in test [1] (30 mg/kg orally) is on record as 0%; in test [1] (100 mg/kg orally) it was 23%. For the same compound, the “Percent decrease in IL-1 level relative to control” value is 32% in test [1] (30 mg/kg orally) and 47%* in test [1] (100 mg/kg orally). The figures for the “Deaths following LPS challenge (lethality)” value in the test with Female BALB/c mice (setting [3]) and with Female BALB/c mice (setting [4]) were 8/10 and 9/10, respectively.
With `NC(=O)c1cccc2[nH]c(C3CCN(CCc4ccccc4)C3)nc12` (stereo not shown) [2-[1-(2-phenylethyl)pyrrolidin-3-yl]-1H-benzimidazole-4-carboxamide], in test [2], the pKi is 8.04.
In the case of `NC(=O)c1cccc2[nH]c(C3CCN3)nc12` (stereo not shown) [2-azetidin-2-yl-1H-benzimidazole-4-carboxamide], the pKi in test [2] is 7.47.
For `C[C@@]1(c2nc3c(C(N)=O)cccc3[nH]2)CCCN1` [Example 4, 2-[(2S)-2-methylpyrrolidin-2-yl]-1H-benzimidazole-4-carboxamide], the “Deaths following LPS challenge (lethality)” value with Female BALB/c mice (setting [3]) is given as 8/10; with Female BALB/c mice (setting [4]), 4/10*.
